Numbered stars: 1 amine (or outer) side, 2 acyl side, 3 side chain; on linkers, the order of the positions; unused ones are H or OH. Bridge positions count the residues as written; N and C are the ends. Square brackets hold non-standard residues; d marks the D form. Peptide text beside a SMILES is read from it. NGly(3-aminopropyl) = O=C(CN(CCCN[*:3])[*:1])[*:2]; N(2-Aminoethyl)Gly = O=C(CN(CCN[*:3])[*:1])[*:2]; N(CH2CH2CO)Gly = O=C(CN(CCC(=O)[*:3])[*:1])[*:2]; N(CH2CH2COOH)Gly = O=C(O)CCNCC(=O)O; Gly(N(CH2)3NH2) = NCCCNCC(=O)O

Broadly, the inhibition is the share of the control response that was lost under treatment.

A short description of data set [1]: In vitro biostability in human serum (HPLC determination of peptide degradation). The data set is classed as in vitro ADME. The note with it: 37° C., FIG. 1. The procedure:
FIG. 1 is a graph showing in vitro biostability of somatostatin and three analogs thereof in human serum. The graph depicts the percentage of undegraded molecules for each of the compounds initially and after various periods of time.
Resistance to biodegradation of SST analogs
The in vitro biostability of a SST cyclic peptide analog, PTR 3002, was measured in human serum, and was compared to the same sequence in a non-cyclic peptide analog (PTR 3001), to octreotide (Sandostatin), and to native somatostatin (SRIF). […] The assay was based on HPLC determination of peptide degradation as a function of time at 37° C.

Data set [2] concerns Somatostatin Receptor (SSTR) Subtype SSTR-2B. Nature of the data set: Inhibition of radioactive iodinated somatostatin (SRIF-14) binding, CHO cells expressing SSTR-2B. The note with it: read-out: percent inhibition of SRIF-14 binding, SSTR-2B; for inhibition at 1 µM: Conc. 10^-6 M; for inhibition at 0.1 µM: Conc. 10^-7 M; for inhibition at 0.01 µM: Conc. 10^-8 M. An excerpt: (§1) Receptor binding specificity of cyclic peptide analogs
Chain of Somatostatin Receptor (SSTR) Subtype SSTR-2B (P30874 1-356 isoform P30874-2): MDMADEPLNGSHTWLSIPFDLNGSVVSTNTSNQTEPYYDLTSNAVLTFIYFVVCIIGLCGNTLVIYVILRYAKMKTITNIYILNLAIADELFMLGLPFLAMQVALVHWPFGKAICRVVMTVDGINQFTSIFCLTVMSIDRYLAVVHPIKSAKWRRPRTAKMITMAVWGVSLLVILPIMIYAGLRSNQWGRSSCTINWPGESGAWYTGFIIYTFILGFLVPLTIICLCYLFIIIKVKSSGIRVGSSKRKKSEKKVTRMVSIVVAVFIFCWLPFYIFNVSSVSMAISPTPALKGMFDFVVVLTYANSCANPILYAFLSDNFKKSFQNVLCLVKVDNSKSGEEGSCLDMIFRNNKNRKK
(§2) The values presented are percent inhibition of radioactive iodinated somatostatin (SRIF-14) binding.

Data set [3] concerns the target Somatostatin Receptor (SSTR) Subtype SSTR-5 (Homo sapiens, UniProt P35346). Nature of the data set: Inhibition of radioactive iodinated somatostatin (SRIF-14) binding, CHO cells expressing SSTR-5. Particulars: read-out: percent inhibition of SRIF-14 binding, SSTR-5; for inhibition at 1 µM: Conc. 10^-6 M; for inhibition at 0.1 µM: Conc. 10^-7 M; for inhibition at 0.01 µM: Conc. 10^-8 M.
Description: as §1, §2

Data set [4] is described as follows: Lack of toxicity of cyclized peptide analogs in rats. Format: in vivo. The source says:
Lack of toxicity of cyclized peptide analogs
These two doses are several orders of magnitude higher than those needed to elicit the desired endocrine effect. The peptides dissolved in saline produced no untoward side effects on the central nervous system, cardiovascular system, body temperature, nor on the periphery of the animals.

In data set [5] the target is T1, bradykinin receptors (PC 12 cells) (Rattus norvegicus, UniProt P25023).
T1 construct: PC 12 cells that express bradykinin receptors; endogenous in cells; host or cells: PC12 cells
T1 sequence (P25023 1-396): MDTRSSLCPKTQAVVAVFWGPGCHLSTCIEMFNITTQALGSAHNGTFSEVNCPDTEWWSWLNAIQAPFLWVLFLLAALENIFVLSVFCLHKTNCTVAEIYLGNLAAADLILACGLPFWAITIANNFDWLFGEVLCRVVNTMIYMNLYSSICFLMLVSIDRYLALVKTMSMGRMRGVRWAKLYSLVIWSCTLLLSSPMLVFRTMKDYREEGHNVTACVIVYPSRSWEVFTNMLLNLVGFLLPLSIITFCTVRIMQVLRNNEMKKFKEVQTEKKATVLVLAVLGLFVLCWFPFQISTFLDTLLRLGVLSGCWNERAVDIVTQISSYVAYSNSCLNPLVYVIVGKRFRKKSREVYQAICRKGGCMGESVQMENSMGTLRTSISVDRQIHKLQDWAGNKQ
Nature of the data set: Bradykinin antagonist assay: (3H)dopamine release from PC 12 cells. Format: cell-based. Particulars: at 10^-6 M; (3H)DA release stimulated by bradykinin, PC12 cells. As to the method: BRADYKININ ANTAGONIST ASSAY (Displacement of (^3 H)dopamine release from PC 12 cells)
Novel backbone cyclized peptide analogs of the present invention were assayed in vitro for bradykinin antagonist activity by protection of (^3 H)dopamine release from PC 12 cells that express bradykinin receptors. PC12 cells were grown in Dulbecco Modified Eagle's medium with high glucose, supplemented with 10% horse serum, 5% fetal calf serum, 130 units/ml penicillin and 0.1 mg/ml streptomycin. For experiments, cells were removed from the medium using 1 mmole EDTA and replated on collagen coated-12-well plates and assayed 24 hr later. Release of (^3 H)dopamine was determined as follows: cells were incubated for 1.5 hr at 37° C. with 0.5 ml of growth medium and […] (^3 H)DA (41 Ci/mmole) and […] pargyline followed by extensive washing with medium (3×1 ml) and release buffer consisting of (mM): 130 NaCl; 5 KCl; 25 NaHCO3; 1 NaH2 PO4; 10 glucose and 1.8 CaCl2. In a typical experiment, cells were incubated with 0.5 ml buffer for 5 consecutive incubation periods of 3 min each at 37° C. Spontaneous (^3 H)DA release was measured by collecting the medium released by the cells successively for the first 3 min period. Antagonists were added to the cells 3 min prior to stimulation (at the second period), and stimulation of (^3 H)DA release by 100 nmole of bradykinin are monitored during the 3 period by 60 mmole KCl. The remaining of the (^3 H)DA was extracted from the cells by over night incubation with 0.5 ml 0.1N HCl. (^3 H)DA release during each 3 min period was expressed as a % of the total (^3 H)DA content of the cells. Net evoked release was calculated from (^3 H)DA release during stimulation period after subtracting basal (^3 H)DA release in the preceding baseline period if not indicated otherwise.

The next data set concerns the target T2, BK2 receptors (Cavia porcellus, UniProt O70526).
T2 construct: This tissue contains predominantly BK2 receptors; from tissue; host or cells: guinea-pig ileum, longitudinal muscle layer with adhering mesenteric plexus
T2 sequence (O70526 1-372): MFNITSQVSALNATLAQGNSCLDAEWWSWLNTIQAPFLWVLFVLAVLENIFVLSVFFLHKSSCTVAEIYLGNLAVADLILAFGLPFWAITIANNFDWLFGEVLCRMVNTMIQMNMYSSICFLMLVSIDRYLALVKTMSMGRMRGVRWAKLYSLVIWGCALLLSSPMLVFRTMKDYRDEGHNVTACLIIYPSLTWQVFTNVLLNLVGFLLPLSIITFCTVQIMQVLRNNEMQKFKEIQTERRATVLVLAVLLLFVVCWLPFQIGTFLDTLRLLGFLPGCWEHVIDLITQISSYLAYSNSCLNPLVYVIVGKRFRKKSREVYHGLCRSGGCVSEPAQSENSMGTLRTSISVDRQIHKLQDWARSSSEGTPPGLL
The data set can be described thus: Bradykinin antagonist assay: guinea-pig ileum contraction. The note with it: at 10^-6 M, BK 2×10^-8 M, atropine 1 μM present.

Chain of Somatostatin Receptor (SSTR) Subtype SSTR-5 (P35346 whole entry): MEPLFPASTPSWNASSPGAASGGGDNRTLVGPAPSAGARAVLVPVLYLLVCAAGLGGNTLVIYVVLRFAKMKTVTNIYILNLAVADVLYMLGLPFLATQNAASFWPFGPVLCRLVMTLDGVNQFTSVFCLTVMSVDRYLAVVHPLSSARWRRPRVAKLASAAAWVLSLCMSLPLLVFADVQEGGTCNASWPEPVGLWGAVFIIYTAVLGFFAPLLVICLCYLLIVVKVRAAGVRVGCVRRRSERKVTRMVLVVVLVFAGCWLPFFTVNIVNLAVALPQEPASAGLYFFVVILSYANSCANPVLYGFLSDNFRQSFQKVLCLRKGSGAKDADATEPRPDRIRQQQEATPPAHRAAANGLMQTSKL
Description for BK2 receptors: The ileum of the guinea-pig was selected as the preparation for the bioassay. This tissue contains predominantly BK2 receptors. The preparation consists of the longitudinal muscle layer with the adhering mesenteric plexus. The isolated preparation was kept in Krebs solution and contractions were measured with an isometric force transducer. […] Atropine (1 μM) was always present.

As for `C[C@@H](O)[C@H](NC(=O)CN1CCNC(=O)CCN(C(=O)[C@H](N)Cc2ccccc2)CC(=O)N[C@@H](Cc2ccccc2)C(=O)N[C@H](Cc2c[nH]c3ccccc23)C(=O)N[C@@H](CCCCN)C(=O)N[C@@H]([C@@H](C)O)C1=O)C(N)=O` [PTR 3002] (H-[dF][N(CH2CH2CO)Gly]F[dW]KT[N(2-Aminoethyl)Gly]T-NH2; lactam 2-7), the “in vitro biostability in human serum” value in data set [1] was “as stable as octreotide, is more stable than the corresponding non-cyclic structure, and is much more stable than SRIF”.

Consider `C[C@@H](O)[C@H](NC(=O)CN(CCCN)C(=O)[C@@H](NC(=O)[C@H](CCCCN)NC(=O)[C@@H](Cc1c[nH]c2ccccc12)NC(=O)[C@H](Cc1ccccc1)NC(=O)CN(CC(=O)O)C(=O)[C@H](N)Cc1ccccc1)[C@@H](C)O)C(N)=O` [PTR 3005], for which, in data set [2], the inhibition at 1 µM was determined as 0%, the inhibition at 0.1 µM amounted to 0% and the inhibition at 0.01 µM was determined as 0%. Moreover, in data set [3], the inhibition at 1 µM was determined as 9%, the inhibition at 0.1 µM amounted to 0% and the inhibition at 0.01 µM is 0%.

For `C[C@@H](O)[C@H](NC(=O)CN1CCCNC(=O)CCN(C(=O)[C@H](N)Cc2ccccc2)CC(=O)N[C@@H](Cc2ccccc2)C(=O)N[C@H](Cc2c[nH]c3ccccc23)C(=O)N[C@@H](CCCCN)C(=O)N[C@@H]([C@@H](C)O)C1=O)C(N)=O` [PTR 3007] (H-[dF][N(CH2CH2CO)Gly]F[dW]KT[NGly(3-aminopropyl)]T-NH2; lactam 2-7), in data set [4] (rats observed for 4 hours post administration), the “respiratory disturbances, stereotyped behavior, muscle tone” value was “no respiratory disturbances”. The “tolerability after single intraperitoneal application” value in data set [4] (rats, dose of 1.5 mg/kg) was “well tolerated”.

For `C[C@@H](O)[C@H](NC(=O)CN(CCCN)C(=O)[C@@H](NC(=O)[C@H](CCCCN)NC(=O)[C@@H](Cc1c[nH]c2ccccc12)NC(=O)[C@H](Cc1ccccc1)NC(=O)CN(CCC(=O)O)C(=O)[C@H](N)Cc1ccccc1)[C@@H](C)O)C(N)=O` [PTR 3008] (H-[dF][N(CH2CH2COOH)Gly]F[dW]KT[Gly(N(CH2)3NH2)]T-NH2), in data set [2], the inhibition at 1 µM was 0%, the inhibition at 0.1 µM is 0% and the inhibition at 0.01 µM amounted to 0%. Moreover, in data set [3], the inhibition at 1 µM was 15%, the inhibition at 0.1 µM stood at 6% and the inhibition at 0.01 µM stood at 0%.

Turning to “Ada-(D)Arg-Arg-cyclo(N^α (1-(6-aminohexylene)Gly-Hyp-Phe-D-Asp)-D-Phe-Phe-Arg--OH [Example 1]”, in data set [5], the “inhibition of BK activity” value came out at 30%.

“Ada-D-Arg-Arg-N^α (6-acetamidohexylene)Gly-Hyp-Phe-D-Asp(NH-Me)-D-Phe-Phe-Arg--OH [Example 2]”: the “inhibition of BK activity” value (in data set [5]; against BK2 receptors) was 0% in each case.

In the case of “H-D-Arg-Arg-cyclo(N^α (4-propanoyl)Gly-Hyp-Phe-N^α (3-amido-propyl)-S-Phe)-Ser-D-Phe-Phe-Arg--OH [Example 4]”, the “inhibition of BK activity” value in data set [5] worked out at 17%.

The values above are taken from US5883293A, “Conformationally constrained backbone cyclized peptide analogs” (Peptor Ltd., priority 1994, dated 1999).
